Reference: patent US20060228333A1, “Methods for control of tumors and chronic infections by modulating immunologically informed carriers homing to tolerogenic organs or tissues” (priority 2004, published 2006)

Test system: thymus (homing of Brown Norway rat PBMCs)
Experiment: Thymic homing of injected donor PBMCs after drug treatment (homed cell counting in sliced thymus)
Format: in vivo, Lewis rats
Details: for Thymic homing (cell number): control 6580; for Thymic homing compared with control and other treated groups: doses as in Table 1; for Activation of the epithelial cells of the thymus: stated in discussion of Example 1
Experimental: Inbred male Lewis rats (LW, RT1l) were injected intramuscularly with rapamycine (RAPA; 0.1 mg/kg/d), tacrolimus (TAC; 0.2 mg/kg/d), cyclosporine A (CsA; 10 mg/kg), PGE 1 (32 ug/kg or 10 ug/kg) or a control.
One hour after the above treatments, 1.2-1.6×10^7 peripheral blood mononuclear cells (PBMCs) were obtained from Brown Norway rats (BN, RT1n). The cells were stained with IUBD and then injected intraperitoneally. 24 hours after cellular inoculation, the animals were sacrificed. A thymectomy was performed, the thymus was sliced and homed cell counting was performed. Homed cells may be counted by any method known to one of skill in the art. In this case, as the cells were stained before inoculation, the homed cells in the thymus were identified by the staining. The results of the cell counting are presented in Tables 1 and 2 for each treatment group: […]

[1] = Lewis rats, i.m. RAPA 0.1 mg/kg/d, TAC 0.2 mg/kg/d, CsA 10 mg/kg, 1.2-1.6 × 10^7 BN PBMCs i.p. one hour later, thymus counted 24 hours after inoculation

C=CC[C@@H]1/C=C(\C)C[C@H](C)C[C@H](OC)[C@H]2O[C@@](O)(C(=O)C(=O)N3CCCC[C@H]3C(=O)O[C@H](/C(C)=C/[C@@H]3CC[C@@H](O)[C@H](OC)C3)[C@H](C)[C@@H](O)CC1=O)[C@H](C)C[C@@H]2OC [FK506, tacrolimus]
Thymic homing (cell number) [1]: 2360 | Thymic homing compared with control and other treated groups: inactivated PBMCs that homed to the thymus | Activation of the epithelial cells of the thymus: do activate

CCCCC[C@H](O)/C=C/[C@H]1[C@H](O)CC(=O)[C@@H]1CCCCCCC(=O)O [PGE1]
Thymic homing (cell number) (PGE1 10 ug/kg i.m., 1.6 × 10^7 donor cells injected, 24 hours): 8890 | Thymic homing (cell number) (PGE1 32 ug/kg i.m., 1.6 × 10^7 donor cells injected, 24 hours): 4680 | Effect on epithelial cells and PBMCs (PGE1 high dose 32 ug/kg): inactivated the epithelial cells as well as the PBMCs | Thymic homing compared with low dose and control (PGE1 high dose 32 ug/kg): less thymic homing than low doses

CO[C@H]1C[C@@H]2CC[C@@H](C)[C@@](O)(O2)C(=O)C(=O)N2CCCC[C@H]2C(=O)O[C@H]([C@H](C)C[C@@H]2CC[C@@H](O)[C@H](OC)C2)CC(=O)[C@H](C)/C=C(\C)[C@@H](O)[C@@H](OC)C(=O)[C@H](C)C[C@H](C)/C=C/C=C/C=C/1C [RAPA, rapamycine]
Thymic homing (cell number) [1]: 920

cyclosporine A [CsA]
Thymic homing (cell number) [1]: 3365 | Thymic homing compared with control and other treated groups: inactivated PBMCs that homed to the thymus | Activation of the epithelial cells of the thymus: do activate
